Source: US20090203726A1, “SUBSTITUTED TETRAHYDROQUINOLINES AS ANTIBACTERIAL AGENTS” (priority 2007, published 2009)
Where two headings read alike, the source gives them in different places.

Columns and labels:
MurA (EPT E coli) = target: T1, MurA (EPT E coli) (Escherichia coli, UniProt P0A749); experiment: Kinetic IC50 assay of MurA inhibition (Malachite Green), EPT E coli; type: biochemical
T1 construct: made in house

MurA (EPT Y pestis) = MurA (EPT Y pestis) (Yersinia pestis, UniProt Q8ZB56); experiment: biochemical
Chain of MurA (EPT Y pestis) (Q8ZB56 whole entry, looked up): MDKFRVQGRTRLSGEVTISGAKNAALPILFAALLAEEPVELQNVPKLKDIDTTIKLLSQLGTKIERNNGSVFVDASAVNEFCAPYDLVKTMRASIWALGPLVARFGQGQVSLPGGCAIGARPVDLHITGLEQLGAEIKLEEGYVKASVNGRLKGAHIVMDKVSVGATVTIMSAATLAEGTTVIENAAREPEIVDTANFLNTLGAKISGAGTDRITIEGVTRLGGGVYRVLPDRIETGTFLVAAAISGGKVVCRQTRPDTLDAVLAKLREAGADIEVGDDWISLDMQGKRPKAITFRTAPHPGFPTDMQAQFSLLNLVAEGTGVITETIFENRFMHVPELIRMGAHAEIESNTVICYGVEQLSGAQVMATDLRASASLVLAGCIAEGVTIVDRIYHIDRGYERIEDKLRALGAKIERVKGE

[1] = MurA enzyme, E coli, values given as ranges, read-out: IC50 EPT E coli

T1 sequence (P0A749 whole entry): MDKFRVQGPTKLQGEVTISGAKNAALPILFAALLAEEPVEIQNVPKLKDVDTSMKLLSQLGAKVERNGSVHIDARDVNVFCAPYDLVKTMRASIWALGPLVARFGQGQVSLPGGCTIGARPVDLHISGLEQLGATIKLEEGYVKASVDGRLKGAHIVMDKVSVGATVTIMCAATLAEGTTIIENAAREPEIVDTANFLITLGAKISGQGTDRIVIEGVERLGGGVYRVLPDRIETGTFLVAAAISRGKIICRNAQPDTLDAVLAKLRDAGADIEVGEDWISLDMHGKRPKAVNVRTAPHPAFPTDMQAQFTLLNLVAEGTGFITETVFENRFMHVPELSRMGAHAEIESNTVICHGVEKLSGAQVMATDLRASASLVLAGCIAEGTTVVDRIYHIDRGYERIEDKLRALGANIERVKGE

| Compound | IC50 (MurA (EPT E coli); [1]) [µM] | IC50 (MurA (EPT Y pestis)) [µM] | IC50 (MurA (EPT E coli)) [µM] |
| --- | --- | --- | --- |
| O=C(O)C1Nc2ccc(F)cc2C2C=CCC12 (stereo not drawn) [Compound 1] | 5 to 20 | 20 to 40 | – |
| O=C(O)C1Nc2ccc(F)c(Cl)c2C2C=CCC12 (stereo not drawn) [Compound 2] | > 200 | 10 to 30 | – |
| O=C(O)c1ccc2c(c1)C1C=CCC1C(C(=O)O)N2 (stereo not drawn) [Compound 3] | 2 to 40 | 10 to 30 | – |
| CN(C)C(=O)c1cccc2c1NC(C(=O)O)C1CC=CC21 (stereo not drawn) [Compound 4] | > 200 | 80 to 120 | – |
| O=C(O)C1Nc2cc(C(F)(F)F)ccc2C2C=CCC12 (stereo not drawn) [Compound 5] | 150 to 200 | 10 to 30 | – |
| CC(=O)Nc1ccc2c(c1)C1C=CCC1C(C(=O)O)N2 (stereo not drawn) [Compound 6] | > 200 | 50 to 100 | – |
| NC(=O)c1cccc2c1NC(C(=O)O)C1CC=CC21 (stereo not drawn) [Compound 7] | 5 to 20 | 20 to 40 | – |
| CCOC(=O)C1Nc2c(C(=O)Nc3ccccc3)cccc2C2C=CCC12 (stereo not drawn) [Compound 8] | > 200 | – | – |
| O=C(Nc1ccccc1)c1cccc2c1NC(C(=O)O)C1CC=CC21 (stereo not drawn) [Compound 9] | > 200 | – | – |
| O=C(O)C1Nc2c(C(=O)N3CCN(c4ccccc4)CC3)cccc2C2C=CCC12 (stereo not drawn) [Compound 10] | > 200 | – | – |
| CCOC(=O)C1Nc2c(C(=O)Oc3ccc(-c4ccc(C#N)cc4)cc3)cccc2C2C=CCC12 (stereo not drawn) [Compound 11] | > 200 | – | – |
| CCOC(=O)C1Nc2c(C(=O)Oc3ccc(-c4cccc(C#N)c4)cc3)cccc2C2C=CCC12 (stereo not drawn) [Compound 12] | > 200 | – | – |
| O=C(Nc1ccc(Cl)cc1)c1cccc2c1NC(C(=O)O)C1CC=CC21 (stereo not drawn) [Compound 13] | > 200 | – | – |
| COc1ccc(NC(=O)c2cccc3c2NC(C(=O)O)C2CC=CC32)cc1 (stereo not drawn) [Compound 14] | > 200 | – | – |
| O=C(Nc1ccc(-c2ccccc2)cc1)c1cccc2c1NC(C(=O)O)C1CC=CC21 (stereo not drawn) [Compound 15] | 50 to 100 | – | – |
| O=C(Oc1ccc(-c2ccccc2)cc1Cl)c1cccc2c1NC(C(=O)O)C1CC=CC21 (stereo not drawn) [Compound 21] | 30 to 50 | 5 to 15 | – |
| O=C(Oc1ccc(-c2ccccc2)cc1Cl)c1cccc2c1NC(C(=O)O)C1CC3OC3C21 (stereo not drawn) [Compound 22] | 40 to 60 | 10 to 30 | – |
| O=C(Oc1ccc(-c2ccccc2)cc1[N+](=O)[O-])c1cccc2c1NC(C(=O)O)C1CC=CC21 (stereo not drawn) [Compound 23] | – | 10 to 20 | 30 to 50 |
| N#Cc1ccc(-c2ccc(OC(=O)c3cccc4c3NC(C(=O)O)C3CC=CC43)cc2)cc1 (stereo not drawn) [Compound 24] | 40 to 60 | 20 to 30 | – |
| O=C(O)C1Nc2c(COc3ccccc3)cccc2C2C=CCC12 (stereo not drawn) [Compound 25] | > 200 | – | – |
| CC(C)(C)c1ccc(OCc2cccc3c2NC(C(=O)O)C2CC=CC32)cc1 (stereo not drawn) [Compound 26] | > 200 | – | – |
| O=C(O)C1Nc2c(COc3ccc(Cl)cc3)cccc2C2C=CCC12 (stereo not drawn) [Compound 27] | > 200 | – | – |
| Cc1ccc(OCc2cccc3c2NC(C(=O)O)C2CC=CC32)cc1 (stereo not drawn) [Compound 28] | > 200 | – | – |

| Compound | IC50 (MurA (EPT E coli); [1]) [µM] | IC50 (MurA (EPT Y pestis)) [µM] | IC50 (MurA (EPT E coli)) [µM] |
| --- | --- | --- | --- |
| O=C(O)C1Nc2c(OCc3ccccc3)cccc2C2C=CCC12 (stereo not drawn) [Compound 29] | > 200 | – | – |
| Cc1ccc(COc2cccc3c2NC(C(=O)O)C2CC=CC32)cc1 (stereo not drawn) [Compound 30] | > 200 | – | – |
| O=C(Oc1ccc(-c2ccc(O)cc2)cc1)c1cccc2c1NC(C(=O)O)C1CC=CC21 (stereo not drawn) [Compound 31] | 90 to 110 | 20 to 40 | – |
| COc1ccc(-c2ccc(OC(=O)c3cccc4c3NC(C(=O)O)C3CC=CC43)cc2)cc1 (stereo not drawn) [Compound 32] | 40 to 60 | 15 to 25 | – |
| O=C(Oc1ccc(-c2ccc([N+](=O)[O-])cc2)cc1)c1cccc2c1NC(C(=O)O)C1CC=CC21 (stereo not drawn) [Compound 33] | 40 to 60 | 10 to 20 | – |
| O=C(Oc1ccc(-c2ccc(Cl)cc2)cc1)c1cccc2c1NC(C(=O)O)C1CC=CC21 (stereo not drawn) [Compound 34] | 60 to 80 | 1 to 10 | – |
| CN(C)C(=O)c1ccc(-c2ccc(OC(=O)c3cccc4c3NC(C(=O)O)C3CC=CC43)cc2)cc1 (stereo not drawn) [Compound 35] | > 200 | – | – |
| O=C(O)C1Nc2c(COc3ccc(-c4ccccc4)cc3)cccc2C2C=CCC12 (stereo not drawn) [Compound 36] | > 200 | – | – |
| N#Cc1cc(COc2cccc3c2NC(C(=O)O)C2CC=CC32)ccc1-c1ccccc1 (stereo not drawn) [Compound 37] | > 200 | – | – |
| COc1ccc(-c2ccc(COc3cccc4c3NC(C(=O)O)C3CC=CC43)cc2)cc1 (stereo not drawn) [Compound 38] | > 200 | – | – |
| O=C(Oc1ccc(Oc2ccccc2)cc1)c1cccc2c1NC(C(=O)O)C1CC=CC21 (stereo not drawn) [Compound 39] | 50 to 70 | 10 to 30 | – |
| O=C(Oc1ccc(-c2ccccc2)cc1)c1cc(Cl)cc2c1NC(C(=O)O)C1CC=CC21 (stereo not drawn) [Compound 40] | 30 to 50 | 5 to 15 | – |
| O=C(c1ccccc1)c1ccc(OC(=O)c2cccc3c2NC(C(=O)O)C2CC=CC32)cc1 (stereo not drawn) [Compound 41] | 120 to 140 | 70 to 80 | – |
| CC(=O)N(c1ccccc1)c1ccc(OC(=O)c2cccc3c2NC(C(=O)O)C2CC=CC32)cc1 (stereo not drawn) [Compound 42] | 40 to 60 | – | – |
| O=C(Oc1ccccc1)c1cccc2c1NC(C(=O)O)C1CC=CC21 (stereo not drawn) [Compound 43] | 30 to 50 | – | – |
| Cc1ccc(OC(=O)c2cccc3c2NC(C(=O)O)C2CC=CC32)cc1 (stereo not drawn) [Compound 44] | 1 to 10 | 1 to 5 | – |
| O=C(Oc1ccc(Cl)cc1)c1cccc2c1NC(C(=O)O)C1CC=CC21 (stereo not drawn) [Compound 45] | 160 to 180 | – | – |
| COc1ccc(OC(=O)c2cccc3c2NC(C(=O)O)C2CC=CC32)cc1 (stereo not drawn) [Compound 46] | 1 to 10 | – | – |
| CC(C)(C)c1ccc(OC(=O)c2cccc3c2NC(C(=O)O)C2CC=CC32)cc1 (stereo not drawn) [Compound 47] | 10 to 20 | 5 to 15 | – |
| O=C(Oc1ccc([N+](=O)[O-])cc1)c1cccc2c1NC(C(=O)O)C1CC=CC21 (stereo not drawn) [Compound 48] | – | – | 180 to 200 |
| O=C(Oc1cc(Cl)cc(Cl)c1)c1cccc2c1NC(C(=O)O)C1CC=CC21 (stereo not drawn) [Compound 49] | 30 to 50 | 1 to 10 | – |
| COc1ccc(-c2ccc(N(Cc3cccc4c3NC(C(=O)O)C3CC=CC43)C(C)=O)cc2)cc1 (stereo not drawn) [Compound 50] | 150 to 170 | – | – |
